The structures appear in SMILES notation. The source made the active and inactive calls. No cut-off for these calls is given here.

In this assay the test system is Candida. As to the kind of experiment: Antifungal activity against Candida at 100 ug/mL. It counts as functional, organism-based.
Regarding `CCCCCCCCCCCCC(=O)O[C@H]1CC[C@H](NC(=O)[C@H](OC)[C@H](O)[C@@H](O)[C@H](O)/C=C/C(C)C)C(=O)NC1`, the result was inactive. Next, `CCCCCCCCCCCCCC(=O)O[C@H]1CC[C@H](NC(=O)[C@H](OC)[C@H](O)[C@@H](O)[C@H](O)/C=C/C(C)C)C(=O)N(C)C1`: “inactive”.

Regarding `CCCCCCCCCCCCCCC(=O)O[C@H]1CC[C@H](NC(=O)[C@H](OC)[C@H](O)[C@@H](O)[C@H](O)/C=C/C(C)C)C(=O)N(C)C1`, the result was inactive. To `CCCCCCCCCCCCCC(=O)O[C@H]1CC[C@H](NC(=O)[C@H](OC)[C@H](O)[C@@H](O)[C@H](O)/C=C/C(C)C)C(=O)NC1` belongs “inactive”; to `CO[C@H]1C(=O)O[C@@H]([C@H](O)/C=C/C(C)C)[C@H]1O`, “inactive”; to `CCCCCCCCCCCCCC(=O)O[C@H]1CC[C@H](NC=O)C(=O)N(C)C1`, “inactive”. Next, `CCCCCCCCCCCCCCC(=O)O[C@H]1CC[C@H](NC(=O)[C@H](OC)[C@H](O)[C@@H](O)[C@H](O)/C=C/C(C)C)C(=O)NC1`: “inactive”. In the case of `CCCCCCCCCCCCC(=O)O[C@H]1CC[C@H](NC(=O)[C@H](OC)[C@H](O)[C@@H](O)[C@H](O)/C=C/C(C)C)C(=O)N(C)C1`, the outcome was inactive.

(Values after ChEMBL document CHEMBL1146432, “Bengamides and Related New Amino Acid Derivatives from the New Caledonian Marine Sponge Jaspis carteri” (J Nat Prod, 1997).)
